Source: patent US11780845B2 (Relay Therapeutics, Inc., priority 2019, dated 2023)

What was measured:
SNU16 cells = experiment: SNU16 Cancer Cell Line Proliferation Assay; assay type: cell-based; conditions: SNU-16 cells
Procedure, shortened: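 SNU16 cells were seeded, held 24 h at 37 degrees, then dosed with an 11-point 3-fold dilution series prepared from a 10 mM DMSO stock. After 96 h incubation, viability was read by CellTiter Glo luminescence.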

FGFR2 = FGFR2 (Homo sapiens (Human), UniProt P21802); experiment: FGFR2 Biochemical Caliper Assay
Protocol: Compounds of the present invention were also tested in a FGFR2 Biochemical Caliper Assay. Compounds were prepared in 10 mM DMSO solution and serially diluted into 11 concentrations by 3-fold dilution. […] 5 uL of ATP solution (100 uM) was added to start the reaction and the plate was incubated for 90 minutes, then 70 uL of stopping buffer (0.5M EDTA) was added to terminate the reaction. Each well was analyzed using EZ reader.

FGFR2, sequence (P21802 22-821): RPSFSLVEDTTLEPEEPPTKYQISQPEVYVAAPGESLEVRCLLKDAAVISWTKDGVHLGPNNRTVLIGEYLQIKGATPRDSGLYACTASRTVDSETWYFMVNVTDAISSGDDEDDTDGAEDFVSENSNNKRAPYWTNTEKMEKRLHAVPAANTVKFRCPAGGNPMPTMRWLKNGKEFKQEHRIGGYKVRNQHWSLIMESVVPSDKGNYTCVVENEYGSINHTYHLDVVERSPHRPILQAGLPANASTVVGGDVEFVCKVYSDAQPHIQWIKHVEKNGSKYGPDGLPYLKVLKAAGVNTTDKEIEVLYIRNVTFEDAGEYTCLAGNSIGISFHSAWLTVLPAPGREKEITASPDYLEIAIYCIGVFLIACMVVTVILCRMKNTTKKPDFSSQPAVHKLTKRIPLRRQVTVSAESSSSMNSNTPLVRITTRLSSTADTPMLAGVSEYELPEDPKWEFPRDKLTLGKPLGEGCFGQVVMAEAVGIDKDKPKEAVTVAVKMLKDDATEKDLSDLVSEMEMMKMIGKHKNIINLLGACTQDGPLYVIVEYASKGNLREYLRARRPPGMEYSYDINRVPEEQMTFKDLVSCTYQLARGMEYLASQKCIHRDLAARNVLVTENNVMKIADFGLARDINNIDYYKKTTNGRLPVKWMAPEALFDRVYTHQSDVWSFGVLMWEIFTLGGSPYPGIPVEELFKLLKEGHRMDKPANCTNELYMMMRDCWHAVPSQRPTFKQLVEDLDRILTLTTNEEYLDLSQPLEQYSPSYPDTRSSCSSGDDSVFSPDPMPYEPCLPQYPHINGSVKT

SMILES	IC50 (SNU16 cells; Homo sapiens)	IC50 (FGFR2)	IC50 (SNU16 cells)
C=C(C)C(=O)Nc1ccc(-c2c(-c3ccc(Oc4nccc(COC)n4)c(F)c3)c3c(N)ncnc3n2C)cc1 [Example 511]	≤ 100 nM	< 100 nM	–
Cn1c(-c2ccc(NC(=O)C3=CCC3)cc2)c(-c2ccc(C(=O)N3CCCC3)cc2)c2c(N)ncnc21 [Example 512]	≤ 100 nM	< 100 nM	–
C=C(C)C(=O)Nc1ccc(-c2c(-c3ccc(Oc4nccc(C)n4)c(F)c3)c3c(N)ncnc3n2C)c(CO)c1 [Example 513]	≤ 100 nM	< 100 nM	–
C=C(C)C(=O)Nc1ccc(-c2c(-c3ccc(Oc4nccc(C(F)F)n4)c(F)c3)c3c(N)ncnc3n2C)cc1 [Example 514]	≤ 100 nM	< 100 nM	–
C=C(C)C(=O)Nc1ccc(-c2c(-c3ccc(Oc4ncc(F)c(C)n4)c(F)c3)c3c(N)ncnc3n2C)cc1 [Example 515]	≤ 100 nM	< 100 nM	–
C=C(C)C(=O)Nc1ccc(-c2c(-c3ccc(C(=O)N4CCCC4)cc3)c3c(N)ncnc3n2C)c(C2CC2)c1 [Example 520]	100 to 250 nM	100 to 250 nM	–
C=C(C)C(=O)Nc1ccc(-c2c(-c3ccc(Oc4nccc(C)n4)cc3)c3c(N)ncnc3n2C)c(CC)c1 [Example 521]	–	< 100 nM	≤ 100 nM
C=C(CN(C)C)C(=O)Nc1ccc(-c2c(-c3ccc(C(=O)N4CCCC4)cc3)c3c(N)ncnc3n2C)cc1 [Example 522]	≤ 100 nM	< 100 nM	–
C=C(C)C(=O)Nc1ccc(-c2c(-c3ccc(Oc4nccc(C)n4)c(F)c3)c3c(N)ncnc3n2C2CCCO2)cc1 (centres unmarked) [Example 524]	≤ 100 nM	< 100 nM	–
C=C(C)C(=O)Nc1ccc(-c2c(-c3ccc(Oc4nccc(C)n4)c(F)c3)c3c(N)ncnc3n2C)c(C(F)F)c1 [Example 526]	≤ 100 nM	< 100 nM	–
C=C(C)C(=O)Nc1ccc(-c2c(-c3ccc(Oc4nccc(C)n4)c(F)c3)c3c(N)ncnc3n2C)c(C)c1 [Example 529]	≤ 100 nM	< 100 nM	–
C=C(C)C(=O)Nc1ccc(-c2c(-c3ccc(Oc4nccc(Cl)n4)c(F)c3)c3c(N)ncnc3n2C)cc1 [Example 530]	≤ 100 nM	< 100 nM	–
C=C(C)C(=O)Nc1ccc(-c2c(-c3ccc(Oc4cccc(C)n4)cc3)c3c(N)ncnc3n2C)nc1 [Example 533]	≤ 100 nM	< 100 nM	–
C=C(C)C(=O)Nc1ccc(-c2c(-c3ccc(C(=O)N4CCCC4)cc3F)c3c(N)ncnc3n2C)cc1 [Example 537]	≤ 100 nM	100 to 250 nM	–
C=C(C)C(=O)Nc1ccc(-c2c(-c3ccc(Oc4cnn(C)c4)cc3)c3c(N)ncnc3n2C)cc1 [Example 541]	250 to 1000 nM	1000 to 100000 nM	–
C=C(C)C(=O)Nc1ccc(-c2c(-c3ccc(Oc4nccc(C)n4)cc3F)c3c(N)ncnc3n2C)c(F)c1 [Example 543]	≤ 100 nM	< 100 nM	–
C=C(C)C(=O)Nc1ccc(-c2c(-c3cc(F)c(Oc4nccc(C)n4)cc3F)c3c(N)ncnc3n2C)cc1 [Example 546]	≤ 100 nM	< 100 nM	–
C=C(C)C(=O)Nc1ccc(-c2c(-c3ccc(Oc4nccc(C)n4)c(F)c3F)c3c(N)ncnc3n2C)cc1 [Example 552]	≤ 100 nM	< 100 nM	–
C=Cc1ncc(-c2c(-c3ccc(C(=O)N4CCCC4)cc3)c3c(N)ncnc3n2C)cn1 [Example 554]	250 to 1000 nM	250 to 1000 nM	–
Cn1c(-c2ccc(NC(=O)CCl)cc2)c(-c2ccc(C(=O)N3CCCC3)cc2)c2c(N)ncnc21 [Example 558]	≤ 100 nM	< 100 nM	–
C=C(C)C(=O)Nc1ccc(-c2c(-c3ccc(C(=O)N4CC5CC4C5)cc3F)c3c(N)ncnc3n2C)cc1 [Example 562]	≤ 100 nM	100 to 250 nM	–
C=C(C)C(=O)Nc1ccc(-c2c(-c3ccc(C(=O)N4CCCC4)cc3C#N)c3c(N)ncnc3n2C)cc1 [Example 563]	250 to 1000 nM	1000 to 100000 nM	–
C=C(C)C(=O)Nc1ccc(-c2c(-c3ccc(Oc4nccc(C)n4)cc3C#N)c3c(N)ncnc3n2C)cc1 [Example 564]	250 to 1000 nM	1000 to 100000 nM	–
C=C(C)C(=O)Nc1ccc(-c2c(-c3ccc(C(=O)NC4CC(F)C4)c(OC)c3)c3c(N)ncnc3n2C)cc1 (centres unmarked) [Example 566]	≤ 100 nM	< 100 nM	–
C=C(C)C(=O)Nc1ccc(-c2c(-c3ccc(C(=O)NC4CC(F)C4)c(F)c3)c3c(N)ncnc3n2C)cc1 (centres unmarked) [Example 567]	≤ 100 nM	100 to 250 nM	–

SMILES	IC50 (SNU16 cells; Homo sapiens)	IC50 (FGFR2)	IC50 (SNU16 cells)
C=C(C)C(=O)Nc1ccc(-c2c(-c3ccc(C(=O)NCC(F)(F)F)c(OC)c3)c3c(N)ncnc3n2C)cc1 [Example 568]	≤ 100 nM	< 100 nM	–
C=C(C)C(=O)Nc1ccc(-c2c(-c3ccc(C(=O)N4CCCC4)cc3OC)c3c(N)ncnc3n2C)cc1 [Example 569]	100 to 250 nM	100 to 250 nM	–
C=C(C)C(=O)Nc1ccc(-c2c(-c3c(F)cc(Oc4nccc(C)n4)cc3F)c3c(N)ncnc3n2C)cc1 [Example 570]	≤ 100 nM	< 100 nM	–
C=C(C)C(=O)Nc1ccc(-c2c(-c3ccc(Oc4nccc(C)n4)cc3C(F)F)c3c(N)ncnc3n2C)cc1 [Example 571]	250 to 1000 nM	1000 to 100000 nM	–
C=C(C)C(=O)Nc1ccc(-c2c(-c3ncc(Oc4nccc(C)n4)cc3F)c3c(N)ncnc3n2C)cc1 [Example 572]	≤ 100 nM	< 100 nM	–
C=Cc1ncc2cc(-c3c(-c4ccc(C(=O)N5CCCC5)cc4)c4c(N)ncnc4n3C)ccc2n1 [Example 573]	250 to 1000 nM	1000 to 100000 nM	–
C=C(C)C(=O)Nc1ccc(-c2c(-c3ccc(C(=O)NCC4CCC4)c(F)c3)c3c(N)ncnc3n2C)nc1 [Example 589]	≤ 100 nM	< 100 nM	–
Cn1c(-c2ccc(NC(=O)C3=CCC3)cc2)c(-c2ccc(C(=O)NCC3CCC3)c(F)c2)c2c(N)ncnc21 [Example 590]	≤ 100 nM	< 100 nM	–
C=C(C)C(=O)Nc1ccc(-c2c(-c3ccc(Oc4nccc(C)n4)c(C(F)F)c3)c3c(N)ncnc3n2C)cc1 [Example 594]	≤ 100 nM	100 to 250 nM	–
C=Cc1ccc(-c2c(-c3ccc(Oc4nccc(C)n4)cc3)c3c(N)ncnc3n2C)cn1 [Example 598]	250 to 1000 nM	100 to 250 nM	–
C=C(C)C(=O)Nc1ccc(-c2c(-c3ccc(Oc4nccc(C(F)F)n4)cc3)c3c(N)ncnc3n2C)cc1 [Example 600]	≤ 100 nM	< 100 nM	–
C=C(C)C(=O)Nc1ccc(-c2c(C3=C(F)CC(C(=O)N4CCCC4)CC3)c3c(N)ncnc3n2C)cc1 (centres unmarked) [Example 601]	250 to 1000 nM	1000 to 100000 nM	–
C=CC(=O)N1CCC(n2cc(-c3c(-c4ccc(Oc5ccccc5)cc4)c4c(N)ncnc4n3C)cn2)CC1 [Example 602]	≤ 100 nM	< 100 nM	–
C=CC(=O)N1CC=C(c2c(-c3ccc(Oc4ccccc4)cc3)c3c(N)ncnc3n2C)CC1 [Example 603]	≤ 100 nM	< 100 nM	–
C=CC(=O)N1CCC(n2cc(-c3c(-c4ccc(Oc5ccccc5)cc4)c4c(N)ncnc4n3C)cn2)C(O)C1 (centres unmarked) [Example 607]	≤ 100 nM	< 100 nM	–
C=CC(=O)N1CCC(n2cc(-c3c(-c4ccc(Oc5cccc(C)n5)cc4)c4c(N)ncnc4n3C)cn2)CC1 [Example 608]	≤ 100 nM	< 100 nM	–
CCC(=O)N1CCC(n2cc(-c3c(-c4ccc(Oc5ccccc5)cc4)c4c(N)ncnc4n3C)cn2)CC1 [Example 617]	250 to 1000 nM	100 to 250 nM	–
C=CC(=O)N1CCC(n2cc(-c3c(-c4ccc(OC)cc4)c4c(N)ncnc4n3C)cn2)CC1 [Example 618]	≤ 100 nM	< 100 nM	–
C=CC(=O)N1CCC(c2c(-c3ccc(Oc4cccc(C)n4)c(OC)c3)c3c(N)ncnc3n2C)CC1 [Example 619]	100 to 250 nM	100 to 250 nM	–
C=CC(=O)N1CC=C(c2c(-c3ccc(Oc4cccc(C)n4)c(OC)c3)c3c(N)ncnc3n2C)CC1 [Example 620]	≤ 100 nM	< 100 nM	–
Cc1cccc(Oc2ccc(-c3c(-c4cnn(C5CCN(C(=O)/C=C/CN(C)C)CC5)c4)n(C)c4ncnc(N)c34)cc2)n1 [Example 621]	≤ 100 nM	< 100 nM	–
C=C(C)C(=O)N1CCC(n2cc(-c3c(-c4ccc(Oc5cccc(C)n5)cc4)c4c(N)ncnc4n3C)cn2)CC1 [Example 622]	1000 to 100000 nM	250 to 1000 nM	–
C=CC(=O)NC1CC=C(c2c(-c3ccc(Oc4cccc(C)n4)c(OC)c3)c3c(N)ncnc3n2C)CC1 (centres unmarked) [Example 623]	100 to 250 nM	100 to 250 nM	–
C=CC(=O)N1CCCC(n2cc(-c3c(-c4ccc(Oc5ccccc5)cc4)c4c(N)ncnc4n3C)cn2)C1C (centres unmarked) [Example 626]	250 to 1000 nM	100 to 250 nM	–
